Source: patent US9492471B2, “Methods of treating a disease or disorder associated with Bruton'S Tyrosine Kinase” (Celgene Avilomics Research, Inc., priority 2013, dated 2016)
Read-outs that look alike come from different tables or passages of the source.

Columns and labels:
Assay in all cases: HotSpot kinase profiling
Assay type in all cases: biochemical
TEC = biological target: T1, TEC (Homo sapiens, UniProt P42680)
T1 construct: purchased Reaction Biology Corp
T1 sequence (P42680 1-631): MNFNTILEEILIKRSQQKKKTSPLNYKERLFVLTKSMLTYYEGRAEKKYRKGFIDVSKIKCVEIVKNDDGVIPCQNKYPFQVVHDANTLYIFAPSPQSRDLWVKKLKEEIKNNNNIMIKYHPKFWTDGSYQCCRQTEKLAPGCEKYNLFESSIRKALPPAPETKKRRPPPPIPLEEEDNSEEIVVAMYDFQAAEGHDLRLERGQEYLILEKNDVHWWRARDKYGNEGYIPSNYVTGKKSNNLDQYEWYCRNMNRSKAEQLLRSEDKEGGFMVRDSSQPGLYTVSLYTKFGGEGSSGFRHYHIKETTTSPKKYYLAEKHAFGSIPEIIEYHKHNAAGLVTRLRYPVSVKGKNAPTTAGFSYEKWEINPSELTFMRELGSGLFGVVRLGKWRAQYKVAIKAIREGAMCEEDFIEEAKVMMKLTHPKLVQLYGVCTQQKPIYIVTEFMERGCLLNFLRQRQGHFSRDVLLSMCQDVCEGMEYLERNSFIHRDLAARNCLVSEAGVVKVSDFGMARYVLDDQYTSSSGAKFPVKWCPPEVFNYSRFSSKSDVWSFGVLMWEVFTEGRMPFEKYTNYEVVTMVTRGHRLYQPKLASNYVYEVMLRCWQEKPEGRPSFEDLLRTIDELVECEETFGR
Summary of the method: (§1)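 Percent inhibition, averaged when run more than once and referenced to a DMSO negative control, came from a radioactive filter-binding readout on P81 paper. Reactions of kinase with freshly made substrate and cofactors ran for 2 h at room temperature.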

PKG1b = biological target: T2, PKG1b (Homo sapiens, UniProt Q13976)
T2 construct: purchased Reaction Biology Corp
T2 sequence (Q13976 1-686 isoform Q13976-2): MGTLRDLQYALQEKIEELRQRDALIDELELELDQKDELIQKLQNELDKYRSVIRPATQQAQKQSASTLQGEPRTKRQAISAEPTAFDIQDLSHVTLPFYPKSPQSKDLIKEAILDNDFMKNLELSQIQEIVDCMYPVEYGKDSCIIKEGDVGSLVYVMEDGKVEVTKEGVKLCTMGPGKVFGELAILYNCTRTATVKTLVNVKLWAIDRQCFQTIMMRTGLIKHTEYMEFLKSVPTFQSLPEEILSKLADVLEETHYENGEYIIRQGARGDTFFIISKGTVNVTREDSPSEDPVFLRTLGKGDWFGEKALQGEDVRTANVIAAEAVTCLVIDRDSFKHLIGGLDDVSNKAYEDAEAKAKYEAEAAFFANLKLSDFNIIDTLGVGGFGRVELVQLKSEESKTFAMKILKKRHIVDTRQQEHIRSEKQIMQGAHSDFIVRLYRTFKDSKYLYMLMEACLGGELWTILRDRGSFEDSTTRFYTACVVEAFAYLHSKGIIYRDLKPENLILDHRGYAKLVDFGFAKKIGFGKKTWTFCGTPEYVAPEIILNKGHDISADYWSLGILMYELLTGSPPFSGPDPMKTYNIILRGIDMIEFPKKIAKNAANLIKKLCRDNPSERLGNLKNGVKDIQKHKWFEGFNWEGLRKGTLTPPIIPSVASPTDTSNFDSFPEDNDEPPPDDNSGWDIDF
Summary of the method: as §1

PKCiota = biological target: T3, PKCiota (Homo sapiens, UniProt P41743)
T3 construct: purchased Reaction Biology Corp
T3 sequence (P41743 1-596): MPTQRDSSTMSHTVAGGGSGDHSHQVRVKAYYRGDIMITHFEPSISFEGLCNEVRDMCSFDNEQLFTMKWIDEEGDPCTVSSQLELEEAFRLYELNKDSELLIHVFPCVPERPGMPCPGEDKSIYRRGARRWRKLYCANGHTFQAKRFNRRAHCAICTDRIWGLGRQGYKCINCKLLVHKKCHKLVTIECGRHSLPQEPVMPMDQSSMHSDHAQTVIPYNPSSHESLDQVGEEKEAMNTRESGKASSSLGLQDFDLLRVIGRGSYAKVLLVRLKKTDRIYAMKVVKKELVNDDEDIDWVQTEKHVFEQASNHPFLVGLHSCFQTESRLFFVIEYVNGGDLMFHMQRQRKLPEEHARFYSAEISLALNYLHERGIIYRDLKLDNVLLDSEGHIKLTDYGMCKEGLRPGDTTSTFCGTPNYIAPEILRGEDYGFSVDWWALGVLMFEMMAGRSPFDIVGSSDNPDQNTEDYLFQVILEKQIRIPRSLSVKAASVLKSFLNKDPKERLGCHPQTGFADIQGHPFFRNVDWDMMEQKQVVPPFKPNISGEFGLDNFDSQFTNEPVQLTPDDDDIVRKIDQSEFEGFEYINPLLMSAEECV
Summary of the method: as §1

[1] = read-out: % Enzyme Activity (relative to DMSO controls) Run 1
[2] = read-out: % Enzyme Activity (relative to DMSO controls) Run 2

C=CC(=O)Nc1cccc(Nc2nc(Nc3ccc(OCCOC)c(F)c3)ncc2F)c1 [Compound 2] gave an inhibition at 3 µM (TEC) of 89.1%, a remaining activity at 3 µM (TEC; [1]) of 10.4% and a remaining activity at 3 µM (TEC; [2]) of 11.5%. The inhibition at 3 µM (PKG1b) was 13.8%, the remaining activity at 3 µM (PKG1b; [1]) was 85.4% and the remaining activity at 3 µM (PKG1b; [2]) was 87.1%. For the same compound, the inhibition at 3 µM (PKCiota) was -5.47%, the remaining activity at 3 µM (PKCiota; [1]) was 105% and the remaining activity at 3 µM (PKCiota; [2]) was 106%.
